Results as given in publication PMC8414802, “Hair Cell Generation in Cochlear Culture Models Mediated by Novel γ-Secretase Inhibitors” (Frontiers in Cell and Developmental Biology, 2021).

Tested on: Myo7a+ hair cells and Sox2+ cells in sisomicin-damaged rat cochlear organoids
Assay: Rat cochlear organoids after sisomicin damage
Assay type: cell-based
Description: On day 0, the cochlear sensory epithelium was dissected and the OC was separated from the modiolus and stria vascularis, as described above, from either Wistar rat pups (P2), Lgr5-GFP mice (P0–P2) or Atoh1-GFP mice (P0–P2). To separate the sensory epithelial layer from underlying mesenchyme and neurons, the OC was placed in a 100 μl drop of Matrisperse Cell Recovery Solution (Corning) for 1 h at RT, then delaminated with the aid of forceps. Gentle enzymatic dissociation of hair cells and supporting cells followed with 100 μl drop of TrypLE (Gibco), 20 min at 37°C, then mechanical trituration in DMEM/F12. The cell suspension was centrifuged for 5 min at 500 g at 4°C and resuspended in DMEM/F12 medium supplemented with B27 and N2 (Invitrogen), EGF (50 ng/ml), bFGF (50 ng/ml), IGF (25 ng/ml), CHIR99021 (GSK-3β inhibitor, 3 μM, Merck), valproic acid (HDAC inhibitor, 1 mM, Sigma), 2-phospho-L-ascorbic acid (280 μM, Stemcell Technologies) and 0.01% ampicillin (Sigma). Cells were plated at 2,000 cells per well on 96 wells plate (Corning Costar; ultra-low attachment, round-bottom) to allow aggregation at 37°C. On day 1, Matrigel (GF-depleted, Corning; 2% stock) was added to a final concentration of 0.18 mg/ml. […]
For staining and imaging, organoids were allowed to adhere ON onto transwell-permeable support membranes (Corning) in 12-well plates coated with 100% Matrigel. […] Compiled Z-projections were processed (FIJI, ver2.0) and hair cells quantified on individual planes with manual cell counter plugin, by evaluation of cytosolic expression and nuclear exclusion of Myo7a. […]
Finally, the regenerative potential of CPD3 was assessed with rat cochlear organoids testing the efficacy of CPD3 to transdifferentiate any remaining supporting cells after ototoxic damage. […] A decrease in Myo7a+ hair cells was detected 7 days following sisomicin damage (Figure 6D). […]

COc1ccc2c(c1)N1CCC(C)(C)C1=CC(=O)[C@H]2NC(=O)[C@H](C)NC(=O)CCC(F)(F)F [CPD3]
Total number of Sox2 positive cells in the organoid (after sisomicin damage): did not change
Number of Myo7a+/Sox2+ hair cells (after sisomicin damage, p < 0.001): did increase
Myo7a+ hair cells after sisomicin damage (sisomicin 500 μM 2 h at day 20, 7 days culture, vs sisomicin only, p < 0.001): significant increase
